Results taken from patent publication US4127720A, “Pyrimido[2,1-a]isoquinoline derivatives having antiallergy activity” (priority 1977, dated 1978).

system: reagin-mediated rat Passive Cutaneous Anaphylaxis (PCA); assay: Reagin-mediated rat Passive Cutaneous Anaphylaxis (PCA) screening test; type: in vivo, Sprague-Dawley rats; details: iv, 1-5 minutes prior to antigen challenge (DSCG: at the time of antigen challenge), read-out: Rat PCA Test ID50, i.v. (dose of compound that inhibits 50% of the response)
Procedure: The reagin-mediated rat Passive Cutaneous Anaphylaxis (PCA) screening test used to evaluate the present compounds is generally regarded as one of the best animal models for use in predicting the antiallergy activity of test compounds in man. Briefly, the method consists of passive sensitization of skin sites on the test animals with reaginic antibodies followed after 24 hours by administration of the test drug and antigen challenge. The allergic response is measured by use of Evans' blue dye and is evaluated by the spot diameter at the injection side. Details of the test are provided below.
A substituted ovalbumin antigen is used both as immunogen and challenging antigen. The antigen is prepared as follows: 500 mg. ovalbumin (EA) and 500 mg. K2 CO3 are dissolved in 25 ml. distilled H2 O and stirred at room temperature for 5 minutes. Five hundred (500) mg. dinitrobenzene sulfonic acid, Na^+ salt, (previously recrystallized from hot absolute ethanol) is then added slowly with continued stirring. The reaction mixture is then immediately placed in the dark and allowed to proceed for 2 hours with constant stirring. After 2 hours the mixture is placed in suitable dialysis tubing and dialyzed against 5 changes (4 liters each) of distilled H2 O at 5° C. After dialysis the product is lyophilized and stored at room temperature in a brown or amber container. The antigen obtained will appear as a light yellow, amorphous solid which is very soluble in water or saline. It is designated as DNP denatured ovalbumin (DNP-d EA).
Adult, male Sprague-Dawley rats are used as a source or reagin-rich antisera for the PCA model. Immunization is by a combination of DNP-d EA on Al(OH)3 gel and B. pertussis vaccine. Preparation of the DNP-d EA - gel immunogen is as follows: Dissolve the DNP-d EA in TBS so as to give a concentration of 10 mg./ml. Slowly add 1 ml. of this solution to 10 ml. Al(OH)3 gel (10 mg. solids/ml.) with constant stirring at room temperature. Stir the mixture an additional 30 minutes to insure a uniform adsorption of antigen on gel.
The resulting preparation is then used in combination with phase I B. pertussis vaccine to immunize male S/D rats as follows: For each rat administer 0.1 ml. DNP-d EA - gel suspension intramuscularly in each hind leg (200 μg DNP-d EA and 2 mg. gel total dose). Follow these injections by the intraperitoneal administration of 1.0 ml. B. pertussis vaccine (10-20 × 10^9 organisms). The use of light ether anesthesia during this procedure is recommended to insure proper intramuscular and intraperitoneal injections. Nine days following immunization (but no longer than 10) the animals are exsanguinated by cardiac puncture or abdominal aorta cannulation under ether or pentobarbital anesthesia. The collected whole blood is allowed to clot, the serum separated by centrifugation and the individual serum samples stored frozen until assayed for IgE content.
Individual serum samples should be screened for reaginic antibody concentration before being pooled with other sera, as not all rats respond to immunization procedures with reagin production. A 1:50 saline dilution of serum from each immunized rat is used for this purpose. Intradermal injections of 0.05 ml. of the diluted sera are made in the shaven backs of two small female recipient rats, 100-120 gms. Several serum samples can be tested simultaneously in recipient animals. After a 24 to 48 hour latent period antigen challenge is accomplished by intravenous administration to each rat of 1 mg. DNP-d EA in 0.5 ml. 0.5% Evans' blue dye in saline. Sera which show positive PCA reactions at the 1:50 dilution, as measured 20 to 30 minutes post-challenge are pooled, dispensed in small aliquots and stored at -70° C. or lower until used. Negative sera may be discarded.
The IgE titer of the antisera pool should then be determined. […]

SMILES	ED50 [mg/kg]
O=C(O)c1cnc2c3ccccc3ccn2c1=O [2,3, 4-Oxo-4H-pyrimido[2,1-a]isoquinoline-3-carboxylic Acid]	0.33
O=C(O)c1cnc2c3ccccc3c(O)cn2c1=O [Example 5, 7-Hydroxy-4-oxo-4H-pyrimido[2,1-a]isoquinoline-3-carboxylic Acid]	~1.7
O=c1c(-c2nnn[nH]2)cnc2c3ccccc3ccn12 [Example 8, 3-(1H-Tetrazol-5-yl)-4H-pyrimido[2,1-a]isoquinol-4-one]	0.04

same assay, conditions: po, 10 minutes prior to antigen challenge, Table 1, read-out: Rat PCA Test ID50, p.o. (dose of compound that inhibits 50% of the response)

SMILES	ED50 [mg/kg]
CCOC(=O)c1cnc2n(c1=O)CC(CC)c1ccccc1-2 (racemic) [Example 10B, ethyl (±)-7-Ethyl-6,7-dihydro-4-oxo-4H-pyrimido[2,1-a]isoquinoline-3-carboxylate]	0.13
C=CCC1Cn2c(ncc(C(=O)OCC)c2=O)-c2cc(OC)ccc21 (racemic) [Example 10D, ethyl (±)-7-Allyl-6,7-dihydro-10-methoxy-4-oxo-4H-pyrimido[2,1-a]-3-carboxylate]	~0.31
CCC1Cn2c(ncc(C(=O)O)c2=O)-c2ccccc21 (racemic) [Example 11C, (±)-7-ethyl-6,7-dihydro-4-oxo-4H-pyrimido[2,1-a]isoquinoline-3-carboxylic Acid]	0.048
C=CCC1Cn2c(ncc(C(=O)O)c2=O)-c2cc(OC)ccc21 (racemic) [Example 11E, (±)-7-allyl-6,7-dihydro-10-methoxy-4-oxo-4H-pyrimido[2,1-a]isoquinoline-3-carboxylic Acid]	~0.077
CCOC(=O)c1cnc2n(c1=O)CC(CC(OC)OC)c1ccc(OC)cc1-2 (racemic) [Example 22 (CH2 CH(OMe)2), Ethyl (±)-6,7-Dihydro-7-(2,2-dimethoxyethyl)-10-methoxy-4-oxo-4H-pyrimido[2,1-a]isoquinoline-3-carboxylate]	~3.3
CCOC(=O)c1cnc2n(c1=O)CC(CC=O)c1ccc(OC)cc1-2 (racemic) [Example 22 (CH2 CHO), Ethyl (±)-7-Formylmethyl-6,7-dihydro-10-methoxy-4-oxo-4H-pyrimido[2,1-a]isoquinoline-3-carboxylate]	~20
CCC1Cn2c(ncc(-c3nnn[nH]3)c2=O)-c2ccccc21 (racemic) [Example 23, (±)-7-Ethyl-6,7-dihydro-3-(1H-tetrazol-5-yl)-4H-pyrimido[2,1-a]isoquinol-4-one]	0.1
CCOC(=O)c1cnc2n(c1=O)CCc1ccccc1-2 [Example 6, Ethyl 6,7-Dihydro-4-oxo-4H-pyrimido[2,1-a]isoquinoline-3-carboxylate]	2.3
O=C(O)c1cnc2n(c1=O)CCc1ccccc1-2 [Example 7, 6,7-Dihydro-4-oxo-4H-pyrimido[2,1-a]isoquinoline-3-carboxylic Acid]	7.9
CCOC(=O)c1cnc2n(c1=O)CCc1cc(OC)ccc1-2 [Example 9, Ethyl 6,7-Dihydro-9-methoxy-4-oxo-4H-pyrimido[2,1-a]isoquinoline-3-carboxylate]	~13
CCOC(=O)c1cnc2n(c1=O)CCc1ccc(OC)cc1-2 [Example 10A, ethyl 6,7-Dihydro-10-methoxy-4-oxo-4H-pyrimido[2,1-a]isoquinoline-3-carboxylate]	~0.81
CCOC(=O)c1cnc2n(c1=O)CCc1cc(OC)c(OC)cc1-2 [Example 10C, ethyl 6,7-Dihydro-9,10-dimethoxy-4-oxo-4H-pyrimido[2,1-a]isoquinoline-3-carboxylate]	~0.37
COc1ccc2c(c1)CCn1c-2ncc(C(=O)O)c1=O [Example 11A, 6,7-dihydro-9-methoxy-4-oxo-4H-pyrimido[2,1-a]isoquinoline-3-carboxylic Acid]	2.6

same assay, conditions: po, 10 minutes prior to antigen challenge, Table II and its footnote, read-out: Rat PCA Test ID50, p.o. (dose of compound that inhibits 50% of the response)

SMILES	ED50 [mg/kg]
CCOC(=O)c1cnc2c3ccccc3ccn2c1=O [Example 1, Ethyl 4-Oxo-4H-pyrimido[2,1-a]isoquinoline-3-carboxylate]	> 5
CCOC(=O)c1cnc2c3ccccc3ccn2c1=N [Example 3A, Ethyl 4-Imino-4H-pyrimido[2,1-a]isoquinoline-3-carboxylate]	~0.19
